Test results from ChEMBL document CHEMBL1201862, “PubChem BioAssay data set” (2004).
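Tested at 5 concentrations; 48 h exposure; 96-well plates; endpoints linearly interpolated, else capped at highest concentration. At the GI50, growth is halved.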 The source made the active and inactive calls. Rule as the data show it: active = GI50 up to about 1.1 µM and inactive = higher.

Experiments:
Assay in all cases: NCI-60 cell line screen, 48 h
HOP-62 = system: HOP-62
A549 = system: A549
IGROV-1 = system: IGROV-1
PC-3 = system: PC-3
SF-268 = system: SF-268
SNB-19 = system: SNB-19
M14 = system: M14
RXF 393 = system: RXF 393
MDA-N = system: MDA-N
MDA-MB-231 = system: MDA-MB-231
MOLT-4 = system: MOLT-4
NCI/ADR-RES = system: NCI/ADR-RES
HCC 2998 = system: HCC 2998
BT-549 = system: BT-549
OVCAR-4 = system: OVCAR-4
TK-10 = system: TK-10
OVCAR-5 = system: OVCAR-5
SK-MEL-28 = system: SK-MEL-28
MCF7 = system: MCF7
HT-29 = system: HT-29
HCT-15 = system: HCT-15
Hs-578T = system: Hs-578T
HOP-92 = system: HOP-92
T47D = system: T47D
U-251 = system: U-251
MDA-MB-435 = system: MDA-MB-435
K562 = system: K562
Malme-3M = system: Malme-3M
NCI-H226 = system: NCI-H226
SF-539 = system: SF-539
KM12 = system: KM12
EKVX = system: EKVX
CCRF-CEM = system: CCRF-CEM
SR = system: SR
COLO 205 = system: COLO 205
UACC-257 = system: UACC-257
SK-OV-3 = system: SK-OV-3
HL-60 = system: HL-60
SF-295 = system: SF-295
LOX IMVI = system: LOX IMVI
SK-MEL-5 = system: SK-MEL-5
SN12C = system: SN12C
UACC-62 = system: UACC-62
OVCAR-3 = system: OVCAR-3
DU-145 = system: DU-145
NCI-H23 = system: NCI-H23
ACHN = system: ACHN
HCT-116 = system: HCT-116
SNB-75 = system: SNB-75
786-0 = system: 786-0
SK-MEL-2 = system: SK-MEL-2
SW-620 = system: SW-620
UO-31 = system: UO-31
NCI-H522 = system: NCI-H522
NCI-H460 = system: NCI-H460
OVCAR-8 = system: OVCAR-8
CAKI-1 = system: CAKI-1
RPMI-8226 = system: RPMI-8226
A498 = system: A498

Measured: GI50

O=C1c2ccccc2C2C1C(c1ccccc1)C1(Cc3ccccc3C1=O)C2c1ccccc1 (centres undefined)
inactive: HOP-62 > 100 µM | A549 > 100 µM | IGROV-1 11.7 µM | PC-3 12.5 µM | SF-268 > 100 µM | SNB-19 > 100 µM | M14 > 100 µM | RXF 393 > 100 µM | MDA-N 4.28 µM | MDA-MB-231 4.72 µM | MOLT-4 3.58 µM | NCI/ADR-RES > 100 µM | HCC 2998 > 46.8 µM | BT-549 > 100 µM | OVCAR-4 > 100 µM | TK-10 > 100 µM | OVCAR-5 > 100 µM | SK-MEL-28 > 100 µM | MCF7 > 31.7 µM | HT-29 14.8 µM | Hs-578T > 100 µM | HOP-92 > 100 µM | T47D 11.4 µM | U-251 > 100 µM | MDA-MB-435 > 73.6 µM | K562 5.53 µM | Malme-3M > 100 µM | NCI-H226 > 100 µM | SF-539 > 100 µM | KM12 > 100 µM | EKVX > 100 µM | CCRF-CEM 4.85 µM | SR 7.57 µM | COLO 205 > 100 µM | UACC-257 > 100 µM | SK-OV-3 > 100 µM | HL-60 3.67 µM | SF-295 > 29.6 µM | LOX IMVI 21.6 µM | SK-MEL-5 > 55.8 µM | SN12C > 100 µM | UACC-62 10.1 µM | OVCAR-3 > 100 µM | DU-145 > 100 µM | NCI-H23 > 100 µM | ACHN > 100 µM | HCT-116 2.2 µM | SNB-75 30.4 µM | 786-0 > 100 µM | SK-MEL-2 > 100 µM | SW-620 > 100 µM | UO-31 > 29.8 µM | NCI-H522 20.5 µM | NCI-H460 > 67 µM | OVCAR-8 > 100 µM
> 100 µM: HCT-15

C=CCN1C[C@H](C)N([C@H](c2ccc(C(=O)N(CC)CC)cc2)c2cccc(OC)c2)C[C@H]1C [SNC-80]
inactive: CAKI-1 > 100 µM | HOP-62 74.1 µM | RPMI-8226 29.1 µM | A549 54.3 µM | IGROV-1 35.2 µM | PC-3 31.8 µM | SF-268 86.5 µM | SNB-19 > 100 µM | M14 33.7 µM | MDA-N 53.1 µM | MDA-MB-231 77.8 µM | MOLT-4 27.9 µM | NCI/ADR-RES 39.4 µM | BT-549 41.1 µM | OVCAR-4 73.8 µM | TK-10 48 µM | OVCAR-5 > 100 µM | SK-MEL-28 69.3 µM | MCF7 39.1 µM | HT-29 27.5 µM | Hs-578T 26 µM | HOP-92 5.11 µM | T47D 17 µM | U-251 44.9 µM | MDA-MB-435 34.7 µM | Malme-3M 16.7 µM | NCI-H226 21.4 µM | SF-539 51.5 µM | A498 13 µM | KM12 50.8 µM | EKVX > 100 µM | SR 39.5 µM | COLO 205 16.8 µM | UACC-257 19.5 µM | SK-OV-3 75.2 µM | HL-60 24.8 µM | SF-295 19.9 µM | SK-MEL-5 14 µM | SN12C 64.1 µM | UACC-62 34.1 µM | OVCAR-3 18.3 µM | DU-145 > 100 µM | NCI-H23 32.7 µM | ACHN 35.6 µM | HCT-116 42.7 µM | 786-0 > 100 µM | SK-MEL-2 > 100 µM | SW-620 44.6 µM | UO-31 62.2 µM | NCI-H522 36.3 µM | OVCAR-8 > 100 µM
70.3 µM: HCT-15

S=c1sc2c(s1)SCCCCSCCCCSc1sc(=S)sc1SCCCCSCCCCS2
> 100 µM: HCT-15
inactive: CAKI-1 > 100 µM | HOP-62 > 100 µM | RPMI-8226 > 100 µM | A549 > 100 µM | IGROV-1 > 100 µM | PC-3 > 100 µM | SF-268 93.1 µM | SNB-19 > 100 µM | M14 > 100 µM | MDA-N > 100 µM | MDA-MB-231 > 100 µM | MOLT-4 > 100 µM | NCI/ADR-RES > 100 µM | HCC 2998 > 100 µM | BT-549 > 100 µM | TK-10 > 100 µM | OVCAR-5 > 100 µM | SK-MEL-28 > 100 µM | MCF7 > 100 µM | HT-29 > 100 µM | Hs-578T 30.2 µM | T47D > 100 µM | U-251 > 100 µM | MDA-MB-435 > 100 µM | K562 > 100 µM | Malme-3M > 100 µM | NCI-H226 > 100 µM | SF-539 > 100 µM | A498 > 100 µM | KM12 > 100 µM | EKVX > 100 µM | CCRF-CEM > 100 µM | SR > 100 µM | COLO 205 > 100 µM | UACC-257 > 100 µM | SK-OV-3 > 100 µM | HL-60 > 100 µM | SF-295 > 100 µM | LOX IMVI > 100 µM | SK-MEL-5 > 100 µM | SN12C > 100 µM | UACC-62 > 100 µM | OVCAR-3 > 100 µM | DU-145 > 100 µM | NCI-H23 > 100 µM | ACHN > 100 µM | HCT-116 > 100 µM | SNB-75 18.6 µM | 786-0 68.5 µM | SK-MEL-2 > 100 µM | SW-620 > 100 µM | UO-31 > 100 µM | NCI-H522 > 100 µM | NCI-H460 > 100 µM | OVCAR-8 > 100 µM
